{"source": "patent US8278359B2", "about": "“Compositions containing amines and use thereof to treat acne or reduce the appearance of oil or pores on the skin” (Johnson & Johnson Consumer Companies, Inc., priority 2005, dated 2012)", "key": {"IL-2 (Interleukin-2)": {"system": "IL-2 (Interleukin-2)", "assay": "PHA-stimulated peripheral blood lymphocyte cytokine release: IL-2", "format": "cell-based", "details": "Homo sapiens, 48 h, read-out: IL-2 % inh.", "from_the_text": "(§1) The ability of various amines to affect the inflammatory responses was illustrated by its ability to reduce the production of cytokines by human lymphocytes stimulated with the T-cell receptor (TCR) activating agent phytohaemagglutinin (PHA) in the following assay.\n(§2) Human leukocytes were collected from a healthy adult […] via leukopheresis, and adjusted to a density Of 1×10^6 cells/mL in serum free lymphocyte growth medium (ExVivo-15, Biowhittaker, Walkersville, Md.). PBLs were stimulated with 10 μg/mL PHA in the presence or absence of test samples following published methods (Hamamoto Y., et al. Exp Dermatol 2:231-235, 1993). The following compounds were evaluated N,N,N′,N′-Tetrakis(2-hydroxypropyl)ethylenediamine (THPED, available from BASF under the tradename “Quadrol” or “Neutrol”), N,N,N,N-Tetramethylethylenediamine (TEMED, available from Pfaltz & Bauer Chemicals (Waterbury, Conn.)), and Diethylenetriamine (available from Sigma-Aldrich) Following a 48 hour incubation at 37° C. with 5% CO2, the supernatant was removed and evaluated for cytokine content using commercially available multiplex cytokine detection kit."}, "[1]": {"system": "TNF (tissue necrosis factor-alpha)", "assay": "PHA-stimulated peripheral blood lymphocyte cytokine release: TNF", "format": "cell-based", "details": "Homo sapiens, 48 h, read-out: TNF % inh.", "from_the_text": "as §1, §2"}, "B16 cells": {"system": "B16 cells", "assay": "Induction of pigmentation in vitro, DOPA staining", "format": "cell-based, murine", "details": "pH 7.2, 48 hours", "protocol": "THPED was tested for its effect on pigmentation, using melanocytes, DOPA staining and computerized image analysis. THPED was obtained from BASF (Florham Park, N.J.). THPED was dissolved in culture medium and pH was adjusted to neutral (pH 7.2). THPED was assayed at concentrations ranging from 0.05-0.01%.\nB16 cells (a murine melanoma cell line) were obtained from American Type Culture Collection (Manassas, Va.). Cells were cultured in Dulbecco's Modified Eagle Medium (DMEM) containing 10% fetal bovine serum (FBS), 4.5 mg/ml glucose, 2 mM L-glutamine, sodium pyruvate, without phenol red (Invitrogen, Carlsbad, Calif.). B16 cells were plated on 12 well tissue culture plates (Corning Costar, San Diego, Calif.), at 40,000 cells per well in the above culture media. Cells were allowed to grow overnight and then treated with various concentrations of THPED at pH 7.2 for total 48 hours. Fresh media containing the experimental treatments were changed once daily.\nAt the end of the treatment, the cells were washed for 5 minutes, twice, in phosphate-buffered saline (PBS, from Life Technologies, Gaithersburg, Md.), then briefly fixed in 10% buffered formalin (from Sigma St. Louis, Mo.) for 10 minutes, washed three times with PBS and stained with 0.1% L-3,4-Dihydroxyphenylalanine (DOPA, from Sigma, St. Louis, Mo.) in PBS for 2-3 hours at 37° C., followed by three PBS washes. DOPA is a substrate for tyrosinase; therefore an increase in staining represents increased tyrosinase activity and pigment production. Images of DOPA-stained cells were taken using a Leica DMIL microscope (Bannockburn, Ill.) and an OPTRONICS DEI-750 digital camera (Goleta, Calif.). All images were obtained and analyzed with Image Pro Plus 4.0 software (Media Cybernetics, Silver Spring, Md.).\nThe pigment change was evaluated using the scale defined in Table XII."}, "IFN (interferon-gamma)": {"system": "IFN (interferon-gamma)", "assay": "PHA-stimulated peripheral blood lymphocyte cytokine release: IFN", "format": "cell-based", "details": "Homo sapiens, 48 h, read-out: IFN % inh.", "from_the_text": "as §1, §2"}, "[2]": {"system": "GM-CSF (granulocyte macrophage stimulating factor)", "assay": "PHA-stimulated peripheral blood lymphocyte cytokine release: GM-CSF", "format": "cell-based", "details": "Homo sapiens, 48 h, read-out: GMCSF % inh.", "from_the_text": "as §1, §2"}, "IL-1A": {"system": "IL-1A", "assay": "UV-induced IL-1A release on reconstituted epidermis (EPI 200 HCF epidermal equivalents)", "format": "cell-based, human", "details": "0.5% w/v topical", "protocol": "The effect of diamines was evaluated for topical anti-inflammatory activity on human epidermal equivalents. Epidermal equivalents (EPI 200 HCF), multilayer and differentiated epidermis consisting of normal, human epidermal keratinocytes, were purchased from MatTek (Ashland, Mass.). Upon receipt, epidermal equivalents were incubated for 24 hours at 37° C. in maintenance medium without hydrocortisone. Equivalents were topically treated (2 mg/cm^2) with compounds in 70% ethanol/30% propylene glycol vehicle at the indicated concentration 2 hours before exposure to solar ultraviolet light (1000 W-Oriel solar simulator equipped with a 1-mm Schott WG 320 filter; UV dose applied: 70 kJ/m^2 as measured at 360 nm). Equivalents were incubated for 24 hours at 37° C. with maintenance medium then supernatants were analyzed for IL-1A cytokine release using commercially available kits (Upstate Biotechnology, Charlottesville, Va.)."}, "tyrosinase": {"system": "tyrosinase", "assay": "Tyrosinase activity in lysates of treated B16 cells (DOPA, absorbance 490 nm)", "format": "cell-based, murine", "details": "pH 7.2, B16 cells 48 hours, activity at 3-hours, normalized for total protein", "protocol": "THPED was also tested for its ability to induce tyrosinase activity in B16 cells by spectroscopic measuring of the final product, melanin. B16 cells were treated with THPED at different concentrations at pH 7.2 for 48 hours and cells were then lysed in 250 μl of PBS containing 1% Triton X-100 (Sigma, St. Louis, Mo.). The lysates were collected and centrifuged at 14,000 rpm for 5 minutes at 4° C. to pellet any insoluble material. Lysates (100 μl) were transferred to a 96 well assay plate (Corning Costar, San Diego, Calif.) and mixed with 100 μl of 0.1% (w/v) DOPA in PBS. The absorbance at 490 nm was then monitored from 0 to 12 hours using a VersaMax Plate Spectrophotometer (Molecular Devices, Sunnyvale, Calif.) and SoftMax Pro analytical software (Molecular Devices, Sunnyvale, Calif.). The tyrosinase activities were normalized for total protein using the BioRad Dc Protein Assay (Bio Rad, Hercules, Calif.)."}}, "data": [{"smiles": "CC(O)CN(CCN(CC(C)O)CC(C)O)CC(C)O", "note": "(stereo not shown) [THPED, N,N,N′,N′-Tetrakis(2-hydroxypropyl)ethylenediamine]", "values": [{"measurement": "inhibition at 10 µg/mL", "setting": "IL-2 (Interleukin-2)", "result": 10.6, "unit": "%"}, {"measurement": "inhibition at 100 µg/mL", "setting": "IL-2 (Interleukin-2)", "result": 41.3, "unit": "%"}, {"measurement": "inhibition at 10 µg/mL", "setting": "[1]", "result": 13.3, "unit": "%"}, {"measurement": "inhibition at 100 µg/mL", "setting": "[1]", "result": 46.1, "unit": "%"}, {"measurement": "Pigmentation score", "setting": "B16 cells; 0.01% (w/v)", "result": 1}, {"measurement": "Pigmentation score", "setting": "B16 cells; 0.025% (w/v)", "result": 2}, {"measurement": "Pigmentation score", "setting": "B16 cells; 0.05% (w/v)", "result": 4}, {"measurement": "inhibition at 10 µg/mL", "setting": "IFN (interferon-gamma)", "result": 18.1, "unit": "%"}, {"measurement": "inhibition at 100 µg/mL", "setting": "IFN (interferon-gamma)", "result": 37.9, "unit": "%"}, {"measurement": "inhibition at 10 µg/mL", "setting": "[2]", "result": 10.3, "unit": "%"}, {"measurement": "inhibition at 100 µg/mL", "setting": "[2]", "result": 15.8, "unit": "%"}, {"measurement": "Mean +/− Std Dev of IL-1A Release", "setting": "IL-1A; 2 hours before UV (70 kJ/m^2), 24 hours after", "result": "357.3 ± 92.1", "unit": "ng/mL"}, {"measurement": "inhibition at 0.5 % strength", "setting": "IL-1A; Homo sapiens, 2 hours before UV, vs UV, Vehicle, read-out: Percent Inhibition of Skin Inflammation", "result": 0, "unit": "%"}, {"measurement": "% tyrosinase activity relative to untreated control", "setting": "tyrosinase; 0.01%", "result": 104.15, "unit": "%"}, {"measurement": "% tyrosinase activity relative to untreated control", "setting": "tyrosinase; 0.025%", "result": 167.39, "unit": "%"}, {"measurement": "% tyrosinase activity relative to untreated control", "setting": "tyrosinase; 0.05%", "result": 201.90, "unit": "%"}]}]}
